Drawing on BindingDB's records for patent US10844032 (Vanderbilt University, 2020), this text covers Ki for two molecules.

Molecules are shown by their SMILES. Some results are limits rather than exact numbers.

For the assay, the target named is T1, Induced myeloid leukemia cell differentiation protein Mcl-1 [172-327] (Homo sapiens, UniProt Q07820).
T1 construct: 172-327
Description: Binding Assay.

T1 sequence (Q07820 172-327): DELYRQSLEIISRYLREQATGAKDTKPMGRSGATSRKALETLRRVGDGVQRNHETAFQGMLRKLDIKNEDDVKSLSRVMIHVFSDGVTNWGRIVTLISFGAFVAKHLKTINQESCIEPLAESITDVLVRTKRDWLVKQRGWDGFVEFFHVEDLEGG

For orientation: Ki means a measure of affinity in units of concentration, obtained from inhibition or displacement. A high value points to a looser hold on the target. For `Cc1cc(OCCCc2c(C(=O)NS(=O)(=O)c3ccccc3)[nH]c3c(-c4c(COc5ccccn5)nn(C)c4C)cccc23)cc(C)c1Cl` [US10844032, Example 306], the inhibition constant Ki is below 100 nM. Take `Cc1cc(OCCCc2c(C(=O)NS(=O)(=O)c3ccccc3)[nH]c3c(-c4c(COc5cccnc5)nn(C)c4C)cccc23)cc(C)c1Cl` [US10844032, Example 307]: the Ki was below 100 nM.
